Test results published in DBAASP.
≈ marks a conversion by molar mass, not a printed value. Where “and” joins values, the source holds several entries; their conditions need not be identical. Equal entries are not always repeated.

Assays:
Test in all cases: ≥ marks a high value that may be exact or a test limit, other limits are often not marked, values filed in µg/mL are converted to µM
[1] = test system: Escherichia coli ATCC 25922
[2] = test system: Staphylococcus aureus ATCC 29213
[3] = test system: Staphylococcus aureus
[4] = test system: Escherichia coli
[5] = test system: Pseudomonas aeruginosa ATCC 27853
[6] = test system: Staphylococcus epidermidis ATCC 12228
[7] = test system: Staphylococcus aureus ATCC 25923

SMILES	MIC [1]	MIC [2]	MIC [3]	MIC [4]	also measured
CC(=O)N[C@@H](CCCCN)C(=O)N[C@@H](CC(C)C)C(=O)N[C@@H](CC(C)C)C(=O)N[C@@H](CCCCN)C(=O)N[C@@H](CC(C)C)C(=O)N1CCC[C@H]1C(=O)N[C@@H](CCCCN)C(=O)N[C@@H](CCCCN)C(=O)N[C@@H](CC(C)C)C(=O)N[C@@H](CC(C)C)C(=O)N[C@@H](CCCCN)C(=O)N[C@@H](CC(C)C)C(=O)N[C@@H](CC(C)C)C(=O)N[C@@H](CCCCN)C(N)=O [KLLKLPKKLLKLLK]	> 80 µM	> 80 µM	–	–	–
CC[C@H](C)[C@H](N)C(=O)N[C@H](C(=O)N[C@@H](CO)C(=O)N[C@H](C(=O)N[C@H](C(=O)NCC(=O)N[C@@H](CCCCN)C(=O)N[C@@H](CC(C)C)C(=O)N[C@H](C(=O)N[C@@H](CCCCN)C(=O)N[C@@H](Cc1c[nH]c2ccccc12)C(=O)N[C@H](C(=O)N[C@H](C(=O)N[C@@H](CCCCN)C(=O)N[C@H](C(=O)N[C@H](C(=O)N[C@@H](CC(N)=O)C(=O)N[C@@H](CCCCN)C(=O)N[C@@H](Cc1ccccc1)C(=O)N[C@H](C(=O)N[C@@H](CCCCN)C(=O)N[C@@H](CCCCN)C(=O)O)[C@@H](C)O)C(C)C)[C@@H](C)O)[C@@H](C)CC)[C@@H](C)CC)C(C)C)[C@@H](C)CC)[C@@H](C)O)[C@@H](C)CC [IISTIGKLVKWIIKTVNKFTKK]	–	–	4.7 µM (≈ 12 µg/mL)	2.7 µM (≈ 6.91 µg/mL)	–
CC[C@H](C)[C@H](NC(=O)[C@H](CCCN=C(N)N)NC(=O)[C@H](CCC(N)=O)NC(=O)[C@H](CO)NC(=O)[C@@H](NC(=O)[C@H](CCCN=C(N)N)NC(=O)[C@H](CCCCN)NC(=O)[C@@H](N)Cc1ccccc1)[C@@H](C)CC)C(=O)N[C@@H](CCCCN)C(=O)N[C@@H](CC(=O)O)C(=O)N[C@@H](Cc1ccccc1)C(=O)N[C@@H](CC(C)C)C(=O)N[C@@H](CCCN=C(N)N)C(=O)O [FKRISQRIKDFLR]	5 µM (≈ 8.54 µg/mL)	> 40 µM	–	–	–
CC[C@H](C)[C@H](NC(=O)CN)C(=O)NCC(=O)N[C@@H](CO)C(=O)N[C@@H](C)C(=O)N[C@@H](CC(C)C)C(=O)N[C@@H](C)C(=O)N[C@@H](CCCCN)C(=O)N[C@@H](C)C(=O)N[C@@H](C)C(=O)N[C@@H](CCCCN)C(=O)N[C@@H](CC(C)C)C(=O)N[C@H](C(=O)N[C@@H](C)C(=O)NCC(=O)N[C@H](C(=O)N[C@H](C(N)=O)C(C)C)[C@@H](C)CC)C(C)C [GIGSALAKAAKLVAGIV]	–	–	12.5 µM (≈ 19.2 µg/mL)	50 µM (≈ 76.9 µg/mL)	–
CC[C@H](C)[C@H](N)C(=O)N[C@@H](Cc1c[nH]c2ccccc12)C(=O)N[C@@H](CCCN=C(N)N)C(=O)N[C@H](C(=O)N[C@@H](Cc1ccccc1)C(=O)N[C@@H](CCCN=C(N)N)C(=O)N[C@@H](CCCN=C(N)N)C(=O)N[C@H](C(=O)N[C@@H](Cc1ccccc1)C(=O)N[C@@H](CCCN=C(N)N)C(=O)N[C@H](C(=O)N[C@@H](Cc1ccccc1)C(N)=O)[C@@H](C)CC)[C@@H](C)CC)[C@@H](C)CC [IWRIFRRIFRIF]	4 µM and 8 µM	1 µM (≈ 1.72 µg/mL)	–	–	MIC [5]: 4 µM (≈ 6.89 µg/mL); MIC [6]: 2 µM (≈ 3.44 µg/mL)
CC(C)C[C@H](NC(=O)[C@H](CCCCN)NC(=O)[C@H](CC(C)C)NC(=O)[C@H](CC(C)C)NC(=O)[C@H](CCCCN)NC(=O)[C@H](CCCCN)NC(=O)[C@H](Cc1cnc[nH]1)NC(=O)[C@H](CC(C)C)NC(=O)[C@H](CCCCN)NC(=O)[C@H](CC(C)C)NC(=O)[C@H](CC(C)C)NC(=O)[C@H](CCCCN)NC(=O)[C@H](CCCCN)NC(=O)[C@@H](N)CC(C)C)C(=O)N[C@@H](C)C(=O)NCC(=O)O [LKKLLKLHKKLLKLAG]	2.5 µM (≈ 4.61 µg/mL)	> 40 µM	–	–	–
CC[C@H](C)[C@H](NC(=O)[C@H](CCCCN)NC(=O)[C@H](CCCCN)NC(=O)[C@@H](N)CCC(N)=O)C(=O)N[C@@H](CCCN=C(N)N)C(=O)N[C@H](C(=O)N[C@@H](C)C(=O)N[C@@H](CC(C)C)C(=O)N[C@@H](CO)C(=O)N[C@@H](C)C(=O)O)C(C)C [QKKIRVALSA]	14.4 µM (≈ 16 µg/mL)	> 57.5 µM	–	–	MIC [5]: 14.4 µM (≈ 16 µg/mL)
CC(C)C[C@H](NC(=O)[C@H](Cc1ccc(O)cc1)NC(=O)[C@@H]1CCCN1C(=O)[C@H](Cc1c[nH]c2ccccc12)NC(=O)[C@H](Cc1c[nH]c2ccccc12)NC(=O)[C@H](Cc1c[nH]c2ccccc12)NC(=O)[C@@H]1CCCN1C(=O)[C@H](Cc1ccc(O)cc1)NC(=O)[C@H](CCCN=C(N)N)NC(=O)[C@H](CCCN=C(N)N)NC(=O)[C@@H](N)C(C)C)C(=O)N[C@@H](CCCN=C(N)N)C(=O)N[C@@H](CCCN=C(N)N)C(N)=O [VRRYPWWWPYLRR]	–	–	2.58 µM (≈ 5 µg/mL)	10.3 µM (≈ 20 µg/mL)	–
CC(C)C[C@H](NC(=O)[C@H](CCCCN)NC(=O)[C@H](CCCCN)NC(=O)[C@H](C)NC(=O)[C@H](CC(C)C)NC(=O)[C@H](CCCCN)NC(=O)[C@H](C)NC(=O)[C@H](CC(C)C)NC(=O)[C@H](CCCCN)NC(=O)[C@H](CCCCN)NC(=O)[C@H](C)NC(=O)[C@H](CC(C)C)NC(=O)[C@H](CCCCN)NC(=O)[C@H](C)NC(=O)[C@H](CC(C)C)NC(=O)[C@H](CCCCN)NC(=O)[C@H](CCCCN)NC(=O)[C@H](C)NC(=O)[C@H](CC(C)C)NC(=O)[C@@H](N)CCCCN)C(=O)N[C@@H](C)C(N)=O [KLAKKLAKLAKKLAKLAKKLA]	4 µM (≈ 9.1 µg/mL)	–	–	–	MIC [5]: 4 µM (≈ 9.1 µg/mL); MIC [7]: 4 µM (≈ 9.1 µg/mL)
CC[C@H](C)[C@H](NC(=O)[C@@H](N)C(C)C)C(=O)N[C@@H](C)C(=O)N[C@@H](Cc1ccccc1)C(=O)N[C@@H](C)C(=O)N[C@@H](CCCCN)C(=O)N[C@H](C(=O)N[C@@H](CCCCN)C(=O)N[C@@H](CCC(=O)O)C(=O)N[C@@H](C)C(=O)N[C@@H](CCCCN)C(=O)N[C@@H](C)C(=O)N[C@@H](CCCCN)C(=O)N[C@@H](CC(C)C)C(=O)N[C@@H](CCCCN)C(=O)NCC(=O)N[C@@H](CCC(N)=O)C(=O)N[C@@H](C)C(=O)N[C@@H](CCCCN)C(=O)NCC(=O)O)[C@@H](C)O [VIAFAKTKEAKAKLKGQAKG]	–	–	–	> 123 µM	–
CC[C@H](C)[C@H](NC(=O)[C@H](CCCCN)NC(=O)[C@H](CC(C)C)NC(=O)[C@H](C)NC(=O)[C@H](C)NC(=O)[C@H](CCCCN)NC(=O)[C@H](CC(C)C)NC(=O)[C@H](C)NC(=O)[C@H](CCCCN)NC(=O)CNC(=O)[C@H](CC(C)C)NC(=O)[C@H](Cc1ccccc1)NC(=O)[C@H](CO)NC(=O)CNC(=O)[C@H](Cc1ccccc1)NC(=O)CN)C(=O)NCC(=O)N[C@@H](C)C(=O)N[C@@H](CC(N)=O)C(=O)N[C@H](C(=O)N[C@@H](CC(C)C)C(=O)NCC(=O)NCC(=O)N[C@@H](C)C(=O)N1CCC[C@H]1C(=O)N[C@@H](CCC(=O)O)C(=O)N[C@@H](CCC(N)=O)C(=O)O)C(C)C [GFGSFLGKALKAALKIGANVLGGAPEQ]	–	–	6 µM (≈ 15.7 µg/mL)	25 µM (≈ 65.4 µg/mL)	–
CC[C@H](C)[C@H](NC(=O)CNC(=O)[C@H](CC(C)C)NC(=O)[C@@H](NC(=O)[C@@H](N)Cc1ccc(O)cc1)[C@@H](C)O)C(=O)N[C@@H](CCCCN)C(=O)N[C@H](C(=O)N[C@@H](CC(C)C)C(=O)N[C@@H](Cc1c[nH]c2ccccc12)C(=O)N[C@@H](CO)C(=O)N[C@@H](C)C(=O)N[C@@H](Cc1ccc(O)cc1)C(=O)N[C@@H](CCCCN)C(=O)N[C@@H](Cc1cnc[nH]1)C(=O)N[C@@H](CCCN=C(N)N)C(=O)N[C@@H](CCCCN)C(=O)N[C@H](C(=O)N[C@H](C(=O)N[C@@H](CCC(=O)O)C(=O)N[C@@H](CCCCN)C(=O)N[C@@H](CO)C(=O)N[C@@H](Cc1ccccc1)C(=O)N[C@@H](CC(N)=O)C(=O)N[C@@H](CCCCN)C(=O)NCC(=O)N[C@@H](Cc1ccccc1)C(=O)N[C@@H](Cc1ccc(O)cc1)C(=O)N[C@@H](Cc1cnc[nH]1)C(=O)O)[C@@H](C)CC)[C@@H](C)O)[C@@H](C)CC [YTLGIKILWSAYKHRKTIEKSFNKGFYH]	–	–	–	–	MIC [6]: 50 µM (≈ 172 µg/mL)
